Reference: patent publication US8318769B2, “Substituted sulfonamide compounds” (Gruenethal GmbH, priority 2008, dated 2012)

Target: T1, bradykinin 1 receptor (B1R) of the rat (Rattus norvegicus, UniProt P97583)
T1 construct: expressed in transfected cells
T1 sequence (P97583 1-337): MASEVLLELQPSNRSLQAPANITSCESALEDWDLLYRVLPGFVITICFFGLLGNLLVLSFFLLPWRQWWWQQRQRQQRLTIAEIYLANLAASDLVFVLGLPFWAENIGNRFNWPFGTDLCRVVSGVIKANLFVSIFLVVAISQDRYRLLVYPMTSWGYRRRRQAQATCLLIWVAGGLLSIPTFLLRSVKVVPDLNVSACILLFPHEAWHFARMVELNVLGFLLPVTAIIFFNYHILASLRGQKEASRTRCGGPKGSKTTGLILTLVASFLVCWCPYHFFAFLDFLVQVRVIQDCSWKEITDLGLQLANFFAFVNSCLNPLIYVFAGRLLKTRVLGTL
Assay: FLIPR Ca2+ assay, B1R antagonism, rat
Format: cell-based
Details: CHO K1 cells with rat B1R gene (rB1R cells), Des-Arg9-bradykinin at EC80, % inhibition compared with the maximum achievable inhibition; for B1R antagonism, rat [10 μM] % inhibition: 10 μM test substance; for inhibition at 10 µM: CHO-K1, 10 μM test substance, read-out: B1R antagonism, rat [10 μM] % inhibition
Method: The agonistic or antagonistic action of substances can be quantified on the bradykinin 1 receptor (B1R) of the human and rat species with ectopically expressing cell lines (CHO K1 cells) and with the aid of a Ca^2+-sensitive dyestuff (Fluo-4) in a fluorescent imaging plate reader (FLIPR). The figure in % activation is based on the Ca^2+ signal after addition of Lys-Des-Arg^9-bradykinin (0.5 nM) or Des-Arg^9-bradykinin (100 nM). Antagonists lead to a suppression of the Ca^2+ inflow after addition of the agonist. % inhibition compared with the maximum achievable inhibition is stated.
The agonistic or antagonistic action of substances can be determined on the bradykinin 1 receptor (B1R) of the human and rat species with the following assay. In accordance with this assay, the Ca^2+ inflow through the channel is quantified with the aid of a Ca^2+-sensitive dyestuff (type Fluo-4, Molecular Probes Europe BV, Leiden, Holland) in a fluorescent imaging plate reader (FLIPR, Molecular Devices, Sunnyvale, USA).
Chinese hamster ovary cells (CHO K1 cells) transfected stably with the human B1R gene (hB1R cells) or the B1R gene of the rat (rB1R cells) are used. For functional studies, these cells are plated out on black 96-well plates with a clear base (BD Biosciences, Heidelberg, Germany or Greiner, Frickenhausen, Germany) in a density of 20,000-35,000 cells/well. The cells are left overnight at 37° C. and 5% CO2 in culture medium (hB1R cells: Nutrient Mixture Ham's F12, Gibco Invitrogen GmbH, Karlsruhe, Germany or DMEM, Sigma-Aldrich, Taufkirchen, Germany; rB1R cells: D-MEM/F12, Gibco Invitrogen GmbH, Karlsruhe, Germany) with 10 vol. % FBS (foetal bovine serum, Gibco Invitrogen GmbH, Karlsruhe, Germany or PAN Biotech GmbH, Aidenbach, Germany).
On the following day, the cells are loaded for 60 min at 37° C. with 2.13 μM Fluo-4 (Molecular Probes Europe BV, Leiden, Holland) in HBSS buffer (Hank's buffered saline solution, Gibco Invitrogen GmbH, Karlsruhe, Germany) with 2.5 mM probenecid (Sigma-Aldrich, Taufkirchen, Germany) and 10 mM HEPES (Sigma-Aldrich, Taufkirchen, Germany). The plates are then washed 2× with HBSS buffer, and HBSS buffer which additionally contains 0.1% BSA (bovine serum albumin; Sigma-Aldrich, Taufkirchen, Germany), 5.6 mM glucose and 0.05% gelatine (Merck KGaA, Darmstadt, Germany) is added. After a further incubation of 20 minutes at room temperature, the plates are inserted into the FLIPR for the Ca^2+ measurement.
Alternatively, the plates are washed with buffer A (15 mM HEPES, 80 mM NaCl, 5 mM KCl, 1.2 mM CaCl2, 0.7 mM MgSO4, 2 g/l glucose, 2.5 mM probenecid), buffer A is added and the plates are loaded with 2.5 μM Fluo-4 and 0.025% Pluronic F127 (Sigma-Aldrich, Taufkirchen, Germany). Thereafter, the cells are washed 2× with buffer A and incubated for 30 minutes with buffer A, which additionally contains 0.05% BSA and 0.05% gelatine, at room temperature and thereafter inserted into the FLIPR for the Ca^2+ measurement.
The Ca^2+-dependent fluorescence is measured here before and after addition of substances (λex=488 nm, λem=540 nm). Quantification is by measurement of the highest fluorescence intensity (FC, fluorescence counts) over time.
The FLIPR protocol consists of 2 additions of substance. Test substances (10 μM) are first pipetted on to the cells and the Ca^2+ inflow is compared with the control (hB1R: Lys-Des-Arg^9-bradykinin >=50 nM; rB1R: Des-Arg^9-bradykinin 10 μM). This gives the figure in % activation based on the Ca^2+ signal after addition of Lys-Des-Arg^9-bradykinin (>=50 nM) or Des-Arg^9-bradykinin (10 μM).
After incubation for 10-20 minutes, Lys-Des-Arg^9-bradykinin (hB1R) or Des-Arg^9-bradykinin (rB1R) in the concentration of the EC80 is applied and the inflow of Ca^2+ is likewise determined. Antagonists lead to a suppression of the Ca^2+ inflow. % inhibition compared with the maximum achievable inhibition is calculated. […]

| B1R antagonism, rat [10 μM] % inhibition | inhibition at 10 µM | Compound |
| --- | --- | --- |
| 83% | – | O=C(COCC1CCc2ccccc2N1S(=O)(=O)c1ccc2ccccc2c1)N1CCC(OCCN2CCCC2)(c2cccnc2)CC1 (centres unmarked) [Example 130, 2-[[1-(naphthalen-2-ylsulfonyl)-1,2,3,4-tetrahydro-quinolin-2-yl]-methoxy]-1-[4-pyridin-3-yl-4-(2-pyrrolidin-1-yl-ethoxy)-piperidin-1-yl]-ethanone] |
| 98% | – | COc1cc(C)c(S(=O)(=O)N2CCCCC2CCOCC(=O)N2CCC(OCCN3CCCC3)(c3cccc(F)c3)CC2)c(C)c1 (centres unmarked) [Example 126, 1-[4-(3-fluorophenyl)-4-(2-pyrrolidin-1-yl-ethoxy)-piperidin-1-yl]-2-[2-[1-[(4-methoxy-2,6-dimethyl-phenyl)sulfonyl]-piperidin-2-yl]-ethoxy]-ethanone] |
| – | 96% | COc1cc(C)c(S(=O)(=O)N2CCCCC2CCOCC(=O)N2CCC(OCCN3CCCC3)(c3cccnc3)CC2)c(C)c1 (centres unmarked) [Example 123, 2-[2-[1-[(4-methoxy-2,6-dimethyl-phenyl)sulfonyl]-piperidin-2-yl]-ethoxy]-1-[4-pyridin-3-yl-4-(2-pyrrolidin-1-yl-ethoxy)-piperidin-1-yl]-ethanone] |
| – | 101% | O=C(COCC1COc2ccccc2N1S(=O)(=O)c1ccccc1C(F)(F)F)N1CCC(OCCN2CCCC2)(c2cccc(F)c2)CC1 (centres unmarked) [Example 111, 1-[4-(3-fluorophenyl)-4-(2-pyrrolidin-1-yl-ethoxy)-piperidin-1-yl]-2-[[4-[[2-(trifluoromethyl)-phenyl]sulfonyl]-3,4-dihydro-2H-[1,4]benzoxazin-3-yl]-methoxy]-ethanone] |
| – | 100% | CS(=O)(=O)N(CCOCC(=O)N1CCC(OCCN2CCCC2)(c2cccnc2)CC1)C(c1ccccc1)c1ccccc1 [Example 104, N-benzhydryl-N-[2-[2-oxo-2-[4-pyridin-3-yl-4-(2-pyrrolidin-1-yl-ethoxy)-piperidin-1-yl]-ethoxy]-ethyl]-methanesulfonic acid amide] |
| – | 49% | CN(CCCC(=O)N1CCC(OCCN2CCCC2)(c2cccc(F)c2)CC1)S(=O)(=O)c1cccc(C(F)(F)F)c1 [Example 127, N-[4-[4-(3-fluorophenyl)-4-(2-pyrrolidin-1-yl-ethoxy)-piperidin-1-yl]-4-oxo-butyl]-N-methyl-3-(trifluoromethyl)-benzenesulfonic acid amide] |

Continued, molecule first:

| Compound | B1R antagonism, rat [10 μM] % inhibition | inhibition at 10 µM |
| --- | --- | --- |
| COc1cc(C)c(S(=O)(=O)N2CCCCC2CCCC(=O)N2CCC(OCCN3CCCC3)(c3ccc(C(F)(F)F)cc3)CC2)c(C)c1 (centres unmarked) [Example 79, 4-[1-[(4-methoxy-2,6-dimethyl-phenyl)sulfonyl]-piperidin-2-yl]-1-[4-(2-pyrrolidin-1-yl-ethoxy)-4-[4-(trifluoromethyl)-phenyl]-piperidin-1-yl]-butan-1-one] | – | 100% |
| Cc1cc(S(=O)(=O)N2CCCCC2CCC(=O)N2CCC(OCCN3CCCC3)(c3ccc(F)cc3)CC2)c(C)cc1Cl (centres unmarked) [Example 74, 3-[1-[(4-chloro-2,5-dimethyl-phenyl)sulfonyl]-piperidin-2-yl]-1-[4-(4-fluorophenyl)-4-(2-pyrrolidin-1-yl-ethoxy)-piperidin-1-yl]-propan-1-one] | – | 92% |
| Cc1cccc(Cl)c1S(=O)(=O)N(CCOCC(=O)N1CCC(OCCN2CCCC2)(c2ccc(C(F)(F)F)cc2)CC1)C1CC1 [Example 71, 2-chloro-N-cyclopropyl-6-methyl-N-[2-[2-oxo-2-[4-(2-pyrrolidin-1-yl-ethoxy)-4-[4-(trifluoromethyl)-phenyl]-piperidin-1-yl]-ethoxy]-ethyl]-benzenesulfonic acid amide] | – | 95% |
| O=C(CC1CCCCN1S(=O)(=O)c1cccc(C(F)(F)F)c1)N1CCC(OCCN2CCCC2)(c2ccc(F)cc2)CC1 (centres unmarked) [Example 72, 1-[4-(4-fluorophenyl)-4-(2-pyrrolidin-1-yl-ethoxy)-piperidin-1-yl]-2-[1-[[3-(trifluoromethyl)phenyl]sulfonyl]-piperidin-2-yl]-ethanone] | – | 62% |
| COc1cc(C)c(S(=O)(=O)N(CCOCC(=O)N2CCC(OCCN3CCCC3)(c3ccc(C(F)(F)F)cc3)CC2)C2CC2)c(C)c1 [Example 67, N-cyclopropyl-4-methoxy-2,6-dimethyl-N-[2-[2-oxo-2-[4-(2-pyrrolidin-1-yl-ethoxy)-4-[4-(trifluoromethyl)-phenyl]-piperidin-1-yl]-ethoxy]-ethyl]-benzenesulfonic acid amide] | – | 98% |
| O=C(CCCC1CCCCN1S(=O)(=O)c1ccc2ccccc2c1)N1CCC(OCCN2CCCC2)(c2cccc(F)c2)CC1 (centres unmarked) [Example 96, 1-[4-(3-fluorophenyl)-4-(2-pyrrolidin-1-yl-ethoxy)-piperidin-1-yl]-4-[1-(naphthalen-2-ylsulfonyl)-piperidin-2-yl]-butan-1-one] | – | 79% |
| O=C(CC(NS(=O)(=O)c1ccc2ccccc2c1)c1ccccc1)N1CCC(OCCN2CCCC2)(c2ccc(F)cc2)CC1 (centres unmarked) [Example 76, N-[3-[4-(4-fluorophenyl)-4-(2-pyrrolidin-1-yl-ethoxy)-piperidin-1-yl]-3-oxo-1-phenyl-propyl]-naphthalene-2-sulfonic acid amide] | – | 90% |
| O=C(CCCC1CCCCN1S(=O)(=O)c1ccccc1C(F)(F)F)N1CCC(OCCN2CCCC2)(c2cccc(F)c2)CC1 (centres unmarked) [Example 86, 1-[4-(3-fluorophenyl)-4-(2-pyrrolidin-1-yl-ethoxy)-piperidin-1-yl]-4-[1-[[2-(trifluoromethyl)-phenyl]sulfonyl]-piperidin-2-yl]-butan-1-one] | – | 102% |
| COc1cc(C)c(S(=O)(=O)N2CCCCC2COCC(=O)N2CCC(OCCN3CCCC3)(c3ccc(F)cc3)CC2)c(C)c1 (centres unmarked) [Example 64, 1-[4-(4-fluorophenyl)-4-(2-pyrrolidin-1-yl-ethoxy)-piperidin-1-yl]-2-[[1-[(4-methoxy-2,6-dimethyl-phenyl)sulfonyl]-piperidin-2-yl]-methoxy]-ethanone] | – | 98% |
| Cc1cccc(Cl)c1S(=O)(=O)N1CCCCC1COCC(=O)N1CCC(OCCN2CCCC2)(c2ccc(F)cc2)CC1 (centres unmarked) [Example 68, 2-[[1-[(2-chloro-6-methyl-phenyl)sulfonyl]-piperidin-2-yl]-methoxy]-1-[4-(4-fluorophenyl)-4-(2-pyrrolidin-1-yl-ethoxy)-piperidin-1-yl]-ethanone] | – | 93% |
| COc1cc(C)c(S(=O)(=O)N2CCCCC2COCC(=O)N2CCC(OCCN3CCCC3)(c3ccc(C(F)(F)F)cc3)CC2)c(C)c1 (centres unmarked) [Example 65, 2-[[1-[(4-methoxy-2,6-dimethyl-phenyl)sulfonyl]-piperidin-2-yl]-methoxy]-1-[4-(2-pyrrolidin-1-yl-ethoxy)-4-[4-(trifluoromethyl)-phenyl]-piperidin-1-yl]-ethanone] | – | 96% |
